Results on 12 compounds are retold here after PubChem BioAssay (NCI).

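How tested: cells in 96-well plates exposed to compound for 48 hours at five concentrations. GI50 is the concentration that inhibits growth by half. At the TGI there is no net growth.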 Bounds are passed on as bounds.

Among the test systems are M14 melanoma; HCT-116 colon; A498 renal; ACHN renal; HL-60(TB) leukemia; MDA-MB-435; MALME-3M melanoma; SF-539 CNS; HCT-15 colon; T-47D breast.
Holding throughout (test): NCI tumour cell line growth inhibition, 48 h

For the compound `COc1ccc(S(=O)(=O)N2C(=O)CCC2C(=O)NN)cc1` (stereo not given), the TGI with M14 melanoma, in the assay with HCT-116 colon, in the assay with A498 renal, in the assay on ACHN renal, in the assay with HL-60(TB) leukemia and with MDA-MB-435 was over 100 µM throughout. Also, the TGI in the assay with MALME-3M melanoma, in the assay on SF-539 CNS, with HCT-15 colon and in the assay on T-47D breast was over 100 µM in each case.

Regarding `Clc1ccc(CSCCc2ccncc2)cc1Cl`, the TGI stood at 32.5 µM in the assay with M14 melanoma; 31.5 µM in the assay with HCT-116 colon; 26 µM in the assay on A498 renal; 66 µM in the assay with ACHN renal; 40 µM in the assay on HL-60(TB) leukemia; 49.5 µM in the assay with MDA-MB-435. Moreover, the TGI in the assay with MALME-3M melanoma is 42.4 µM; in the assay on SF-539 CNS, 31.5 µM; with HCT-15 colon it was 56.7 µM; in the assay with T-47D breast, over 100 µM.

For `O=C1CC(C(O)(C(F)(F)F)C(F)(F)Cl)CCC1C(O)(C(F)(F)F)C(F)(F)Cl` (stereo not given), the TGI with M14 melanoma, in the assay on HCT-116 colon, with A498 renal, in the assay on ACHN renal, in the assay with HL-60(TB) leukemia and with MDA-MB-435 was over 10 µM each time. Also, the TGI with MALME-3M melanoma, with SF-539 CNS, in the assay on HCT-15 colon and with T-47D breast was over 10 µM in each case.

As for `COC(=O)c1cc2c(cc1CC1Cc3cc4c(cc3C1)CCC4)CCC2`, the TGI in the assay on M14 melanoma was over 100 µM; with HCT-116 colon it was over 100 µM; in the assay with A498 renal, over 100 µM; in the assay on ACHN renal it was over 100 µM; with HL-60(TB) leukemia it was 32.7 µM; in the assay with MDA-MB-435 it was over 100 µM. The TGI in the assay on MALME-3M melanoma, with SF-539 CNS, with HCT-15 colon and with T-47D breast was over 100 µM in each case.

Turning to `COC(C)(C)[C@@H](O)[C@H]1C[C@H](C)[C@@]2(CC[C@]3(C)[C@@H]2CC[C@@H]2[C@@]4(C)CC[C@@H](OC(C)=O)C(C)(C)[C@@H]4C[C@@H](OC4OC(COC(C)=O)C(O)C(O)C4O)[C@]23C)O1` (stereo not given in full), the TGI with M14 melanoma is 16.5 µM; in the assay on HCT-116 colon, 11.5 µM; in the assay on A498 renal, 14.4 µM; in the assay on ACHN renal it was 18.3 µM; with HL-60(TB) leukemia, 4.63 µM; in the assay with MDA-MB-435, 12.3 µM. In addition, the TGI in the assay on MALME-3M melanoma turned out to be 23.4 µM; in the assay with SF-539 CNS it was 22.1 µM; in the assay on HCT-15 colon, 5.75 µM; in the assay on T-47D breast, 15.1 µM.

As to `C/C1=C\CC[C@@]2(C)O[C@@H]2C[C@@H](C2(C)CO2)CC/C(C)=C/CC1` (stereo not given in full), the TGI with M14 melanoma is 54.7 µM; in the assay with HCT-116 colon, 45.5 µM; in the assay with A498 renal, over 100 µM; with ACHN renal it was 35.1 µM; with HL-60(TB) leukemia it was 71.9 µM; in the assay with MDA-MB-435 it was 46.4 µM. In addition, the TGI in the assay with MALME-3M melanoma worked out at 32.5 µM; in the assay on SF-539 CNS, 46 µM; in the assay with HCT-15 colon it was 25 µM; in the assay on T-47D breast it was 78.3 µM.

In the case of `COc1cc2cc(Oc3ccc(NC(=O)c4cc(C(F)(F)F)cc(C(F)(F)F)c4)cc3)c(C)nc2cc1OC`, the GI50 in the assay with M14 melanoma is 3.23 µM; with HCT-116 colon, 1.56 µM; in the assay on A498 renal it was 1.13 µM; in the assay on ACHN renal it was 2.27 µM; with HL-60(TB) leukemia, 3.51 µM; with MDA-MB-435, over 50 µM. For the same compound, the GI50 in the assay on MALME-3M melanoma is over 50 µM; in the assay on SF-539 CNS it was over 50 µM; in the assay with HCT-15 colon, 2.75 µM; in the assay with T-47D breast, 2.24 µM. Moreover, the TGI in the assay with M14 melanoma, in the assay with HCT-116 colon, in the assay on A498 renal, in the assay on ACHN renal, with HL-60(TB) leukemia and with MDA-MB-435 was over 50 µM each time. In addition, the TGI in the assay with MALME-3M melanoma, with SF-539 CNS, with HCT-15 colon and in the assay on T-47D breast was over 50 µM in each case.

In the case of `CN(Cc1ccccc1)c1cc(=O)n(C)c(=O)[nH]1`, the TGI in the assay on M14 melanoma, in the assay on HCT-116 colon, in the assay with A498 renal, in the assay on ACHN renal, with HL-60(TB) leukemia and in the assay on MDA-MB-435 was over 100 µM throughout. Further, the TGI with MALME-3M melanoma, with SF-539 CNS, in the assay on HCT-15 colon and in the assay on T-47D breast was over 100 µM throughout.

Consider `Nc1ccc(-c2nc3ccccc3s2)cc1C(F)(F)F`, for which the TGI in the assay on M14 melanoma amounted to 28.7 µM; with HCT-116 colon it was 26.1 µM; in the assay with A498 renal, 31.4 µM; in the assay with ACHN renal, 28.5 µM; in the assay on HL-60(TB) leukemia, 36.9 µM; in the assay on MDA-MB-435 it was 30.2 µM. Further, the TGI with MALME-3M melanoma was found to be 29.4 µM; in the assay on SF-539 CNS, 37.7 µM; in the assay on HCT-15 colon, 27.6 µM; with T-47D breast, 20.6 µM.

For `Nc1nc(Cl)cc(NCC2(CO)CCC(CCc3ccccc3)C2)n1` (stereo not given), the TGI in the assay on M14 melanoma came out at 27.8 µM; with HCT-116 colon, 21.9 µM; in the assay on A498 renal it was 26.8 µM; in the assay on ACHN renal, 29.9 µM; in the assay on HL-60(TB) leukemia, 33.1 µM; in the assay on MDA-MB-435, 28.3 µM. Moreover, the TGI in the assay with MALME-3M melanoma came out at 33.3 µM; with SF-539 CNS, 33.4 µM; with HCT-15 colon it was 34 µM; in the assay on T-47D breast it was 30.6 µM.

As for `COc1ccc(/C=C2\C[C@H]3[C@@H]4CCC5=C/C(=N/O)CC[C@]5(C)[C@H]4CC[C@]3(C)\C2=N\O)cc1OC`, the TGI is over 100 µM in the assay on M14 melanoma; over 100 µM with HCT-116 colon; over 100 µM in the assay on A498 renal; over 100 µM with ACHN renal; 76.8 µM in the assay on HL-60(TB) leukemia; over 100 µM in the assay on MDA-MB-435. The TGI in the assay on MALME-3M melanoma, in the assay with SF-539 CNS, in the assay on HCT-15 colon and in the assay on T-47D breast was over 100 µM each time.

Take `C=C1c2cc3c(cc2CC12Cc1cc4c(cc1C2=O)CCC4)CCC3` (stereo not given): the TGI in the assay with M14 melanoma, with HCT-116 colon, with A498 renal, in the assay with ACHN renal, with HL-60(TB) leukemia and with MDA-MB-435 was over 100 µM each time. Moreover, the TGI with MALME-3M melanoma, in the assay on SF-539 CNS, in the assay with HCT-15 colon and with T-47D breast was over 100 µM throughout.
